{"source": "patent US20210002725A1", "about": "“METHODS FOR THE DIAGNOSIS OF METABOLIC DISORDERS USING EPIMETABOLIC SHIFTERS, MULTIDIMENSIONAL INTRACELLULAR MOLECULES, OR ENVIRONMENTAL INFLUENCES” (Berg LLC, priority 2009, published 2021)", "key": {"[1]": {"test_system": "Bcl-2", "assay": "Western blot of Bcl-2 in Skmel-28 melanoma cells treated with CoQ10 building block components", "type": "cell-based", "experimental": "(§1) Skmel-28 melanoma cells were cultured in DMEM/F12 supplemented with 5% Fetal Bovine Serum (FBS) and 1× final concentration of Antibiotics. The cells were grown to 85% confluency and treated with building block components for 3, 6, 12 and 24 hours. The cells were then pelleted and a Western blot analysis was performed.\n(§2) In the Western Blot Analysis, the cells were pelleted in cold PBS, lysed, and the protein levels were quantified using a BCA protein assay. The whole cell lysate was loaded in a 4% loading 12% running Tris-HCl gel. The proteins were then transferred to a nitrocellulose paper then blocked with a 5% milk Tris-buffered solution for 1 hour. The proteins were then exposed to primary antibodies (Bcl-2 and Caspase-3) overnight. The nitrocellulose paper was then exposed to Pico Chemilluminescent for 5 min and the protein expression was recorded. After exposure, actin was quantified using the same method. Using ImageJ the levels of protein expression were quantified. A t-Test was used to analyze for statistical significance."}, "[2]": {"test_system": "Caspase-3", "assay": "Western blot of Caspase-3 in Skmel-28 melanoma cells treated with CoQ10 building block components", "type": "cell-based", "settings": "for Caspase-3 expression / apoptotic effect: all concentrations and time points tested", "experimental": "as §1, §2"}, "[3]": {"test_system": "Melanoma cells", "assay": "Cell proliferation assay (live cell count) of building block combinations", "type": "cell-based", "experimental": "Cell Proliferation Assay of the Combination of 4-Hydroxy-Benzoate with Benzoquinone: This set of experiments used a cell proliferation assay to assess the effect of combining different building block molecules on cell proliferation.\nThe first study examined the effect of combining 4-Hydroxy-Benzoate with Benzoquinone. Cells were incubated for 48 hours, after which a cell count was performed for the live cells. Each test group was compared to the control, and each combination groups were compared to Benzoquinone control. The compounds were statistically analyzed for the addition of Benzoquinone.\nAdditional studies were performed testing additional molar ratios. For the first test 4-Hydroxybenzoic were tested at concentrations of 500 nM, 1 μM, and 50 μM. These concentrations were tested in combination with 2,3-Dimethoxy-5-methyl-p-benzoquinone (Benzo). The concentration of Benzo tested were 25 μM, 50 μM, and 100 μM. Melanoma cells were grown to 80% confluency and seeded in 6 well plates at a concentration of 40K cells per well. The cells were treated with CoQ10, 4-Hydroxybenzoate, Benzo, and a combination of 4-Hydroxybenzoate/Benzo.\nA T-test was performed with p<0.05 as statistically significant."}, "[4]": {"test_system": "neonatal fibroblast cells", "assay": "Cell proliferation assay (coulter counter)", "type": "cell-based", "settings": "HB 500 nM, 5 μM, 25 μM alone and with benzoquinone 25, 50, 100 μM; 24 hours", "method": "A cell proliferation assay was also performed on neonatal fibroblast cells. The concentrations of HB tested were 500 nM, 5 μM, and 25 μM. HB was also tested in combination with benzoquinone at a concentrations of 25 μM, 50 μM, and 100 μM. […] The cells were trypsinized and quantified using a coulter counter."}, "[5]": {"test_system": "tumor cells", "settings": "cited from earlier work"}, "[6]": {"test_system": "HDFa cells", "assay": "SeaHorse XF analyzer OCR and ECAR", "type": "cell-based, human", "source_text": "Environmental influencers (e.g., MIMs or Epi-shifters) may also be identified by changes in cellular energetics. One example of the measurement of cellular energetics are the real-time measures of the consumption of molecular oxygen and/or the change in pH of the media of a cell culture. For example, the ability of a potential epi-shifter to modulate the metabolic state of a cell may be analyzed using, for example, the XF24 Analyzer (Seahorse, Inc.). This technology allows for real time detection of oxygen and pH changes in a monolayer of cells in order to evaluate the bioenergetics of a cell microenvironment. The XF24 Analyzer measures and compares the rates of oxygen consumption (OCR), which is a measure of aerobic metabolism, and extracellular acidification (ECAR), which is a measure of glycolysis, both key indicators of cellular energetics.\n(SeaHorse Biosciences Inc, North Billerica, Mass.).\nIn this experiment, the OCR and extracellular acidification rate (ECAR) in normal cells lines were obtained in the presence and absence of CoQ10 to determine baseline values. It was observed that in its native nutrient environment, the basal OCR rates in normal cells lines are different, and are usually a function of the physiological roles of the cells in the body.\nFor example, one set of experiments were conducted using the non-cancerous cell line HDFa, which is a human adult dermal fibroblast cell line. Fibroblasts are cells that primarily synthesize and secrete extracellular matrix (ECM) components and collagen that form the structural framework (stroma) for tissues. In addition, fibroblasts are known to serve as tissue ambassadors of numerous functions such as wound healing and localized immnomodulation. Under normal physiological conditions, energy requirements in normal fibroblasts are met using a combination of glycolysis and oxidative phosphorylation—the glycolysis providing the necessary nutrients for synthesis of ECM.\nFIGS. 29 and 30 describe the OCR in HDFa and HASMC cells grown in physiologically normal glucose (about 4.6 mM) and high glucose (hyperglycemic) conditions."}, "[7]": {"settings": "24 hours, concentration not given"}, "[8]": {"settings": "all concentrations and time points tested"}}}
{"smiles": "NC(Cc1ccccc1)C(=O)O", "note": "(racemic) [DL-Phenylalanine]", "values": [{"measurement": "Bcl-2 expression", "setting": "[1]; [7]", "result": "statistically significant decrease"}, {"measurement": "Caspase-3 expression", "setting": "[2]; 3 hours, concentration not given", "result": "statistically significant increase"}]}
{"smiles": "NC(Cc1ccc(O)cc1)C(=O)O", "note": "(racemic) [DL-Tyrosine]", "values": [{"measurement": "Bcl-2 expression", "setting": "[1]; 1 μM, 12 hours", "result": "statistical decrease"}, {"measurement": "Bcl-2 expression", "setting": "[1]; 5 μM, 24 hours", "result": "statistical decrease"}, {"measurement": "Bcl-2 expression", "setting": "[1]; 15 μM, 12 hours", "result": "statistical decrease"}, {"measurement": "Caspase-3 expression", "setting": "[2]; 5 μM, 12 hours", "result": "increase"}, {"measurement": "Caspase-3 expression", "setting": "[2]; 15 μM, 12 hours", "result": "increase"}]}
{"smiles": "COc1cc(C(O)C(=O)O)ccc1O", "note": "(centres unmarked) [3-methoxy-4-hydroxymandelate]", "values": [{"measurement": "Bcl-2 expression", "setting": "[1]; [8]", "result": "downward trend"}, {"measurement": "Caspase-3 expression / apoptotic effect", "setting": "[2]", "result": "no statistically significant apoptotic effect"}]}
{"smiles": "O=C(O)C(=O)Cc1ccc(O)cc1", "note": "[4-Hydroxy-phenylpyruvate]", "values": [{"measurement": "Bcl-2 expression", "setting": "[1]; 5 μM, 24 hours", "result": "significant reduction"}, {"measurement": "Bcl-2 expression", "setting": "[1]; 15 μM, 24 hours", "result": "significant reduction"}, {"measurement": "Caspase-3 expression", "setting": "[2]; 5 μM, 12 hours", "result": "significant increase"}, {"measurement": "Caspase-3 expression", "setting": "[2]; 15 μM, 12 hours", "result": "significant increase"}]}
{"smiles": "O=C(O)c1ccc(O)cc1", "note": "[4-Hydroxybenzoate]", "values": [{"measurement": "cell number vs control", "setting": "[3]; 48 hours incubation", "result": "significant decrease in cell number"}, {"measurement": "cell proliferation vs control", "setting": "[3]; additional molar ratios, HB 500 nM, 1 μM, 50 μM", "result": "significant decrease in cell proliferation"}, {"measurement": "reduction in fibroblast cells", "setting": "[4]", "result": "did not show a significant reduction"}]}
{"smiles": "CC(=O)SCCNC(=O)CCNC(=O)[C@H](O)C(C)(C)COP(=O)(O)OP(=O)(O)OC[C@H]1O[C@@H](n2cnc3c(N)ncnc32)[C@H](O)[C@@H]1OP(=O)(O)O", "note": "[Acetyl-CoA]", "values": [{"measurement": "Bcl-2 expression", "setting": "[1]; [8]", "result": "no significant observed reduction"}, {"measurement": "Caspase-3 expression / apoptotic effect", "setting": "[2]", "result": "no significant observed reduction in Bcl-2 or increase in Caspase-3 expression"}]}
{"smiles": "CC(=O)NCC(=O)O", "note": "[Acetylglycine]", "values": [{"measurement": "Bcl-2 expression", "setting": "[1]; 5 μM, 12 hours", "result": "significant decrease"}, {"measurement": "Bcl-2 expression", "setting": "[1]; 25 μM, 12 hours", "result": "significant decrease"}, {"measurement": "Bcl-2 expression", "setting": "[1]; 100 μM, 24 hours", "result": "significant decrease"}]}
{"smiles": "N[C@H](Cc1ccccc1)C(=O)O", "note": "[D-Phenylalanine]", "values": [{"measurement": "Bcl-2 expression", "setting": "[1]; 5 μM, 3 hours", "result": "significant reduction"}, {"measurement": "Bcl-2 expression", "setting": "[1]; 5 μM, 6 hours", "result": "significant reduction"}, {"measurement": "Bcl-2 expression", "setting": "[1]; 25 μM, 3 hours", "result": "significant reduction"}, {"measurement": "Bcl-2 expression", "setting": "[1]; 25 μM, 6 hours", "result": "significant reduction"}, {"measurement": "Bcl-2 expression", "setting": "[1]; 100 μM, 6 hours", "result": "significant reduction"}, {"measurement": "Caspase-3 expression", "setting": "[2]; 5 μM, 6 hours", "result": "significant increase"}, {"measurement": "Caspase-3 expression", "setting": "[2]; 100 μM, 6 hours", "result": "significant increase"}]}
{"smiles": "N[C@H](Cc1ccc(O)cc1)C(=O)O", "note": "[D-Tyrosine]", "values": [{"measurement": "Bcl-2 expression", "setting": "[1]; 5 μM, 12 hours", "result": "reduction"}, {"measurement": "Bcl-2 expression", "setting": "[1]; 5 μM, 24 hours", "result": "reduction"}, {"measurement": "Bcl-2 expression", "setting": "[1]; 15 μM, 12 hours", "result": "reduction"}, {"measurement": "Bcl-2 expression", "setting": "[1]; 15 μM, 24 hours", "result": "reduction"}, {"measurement": "Caspase-3 expression", "setting": "[2]; 1 μM, 12 hours", "result": "increase"}, {"measurement": "Caspase-3 expression", "setting": "[2]; 1 μM, 24 hours", "result": "increase"}, {"measurement": "Caspase-3 expression", "setting": "[2]; 5 μM, 3 hours", "result": "significantly increased"}, {"measurement": "Caspase-3 expression", "setting": "[2]; 5 μM, 12 hours", "result": "significantly increased"}, {"measurement": "Caspase-3 expression", "setting": "[2]; 5 μM, 24 hours", "result": "significantly increased"}]}
{"smiles": "N[C@@H](Cc1ccccc1)C(=O)O", "note": "[L-Phenylalanine]", "values": [{"measurement": "Bcl-2 expression", "setting": "[1]; 100 μM, 3 hours", "result": "statistically significant decrease"}, {"measurement": "Bcl-2 expression", "setting": "[1]; 100 μM, 12 hours", "result": "statistically significant decrease"}]}
{"smiles": "N[C@@H](Cc1ccc(O)cc1)C(=O)O", "note": "[L-Tyrosine]", "values": [{"measurement": "Bcl-2 expression", "setting": "[1]; 500 μM, 24 hours", "result": "statistically significant decrease"}]}
{"smiles": "C[C@@](O)(CCO)CC(=O)O", "note": "[Mevalonic Acid]", "values": [{"measurement": "Bcl-2 expression", "setting": "[1]; [8]", "result": "no significant reduction"}, {"measurement": "Caspase-3 expression / apoptotic effect", "setting": "[2]", "result": "no significant reduction in Bcl-2 expression or an increase in Caspase-3 expression"}]}
{"smiles": "CC(C)(CO)[C@@H](O)C(=O)NCCCO", "note": "[Panthenol]", "values": [{"measurement": "Bcl-2 expression", "setting": "[1]; 25 μM, time not stated", "result": "significant reduction"}]}
{"smiles": "Cc1ncc(CO)c(CO)c1O", "note": "[Pyridoxine]", "values": [{"measurement": "Bcl-2 expression", "setting": "[1]; [7]", "result": "significant reduction"}]}
{"smiles": "COc1cc(C(=O)O)ccc1O", "note": "[Vanillic acid]", "values": [{"measurement": "Bcl-2 expression", "setting": "[1]; 500 nM, 24 hours", "result": "significantly reduce"}, {"measurement": "Bcl-2 expression", "setting": "[1]; 5 μM, 24 hours", "result": "significantly reduce"}]}
{"smiles": "C=C1/C(=C\\C=C2/CCC[C@]3(C)[C@@H]([C@H](C)CCCC(C)(C)O)CC[C@@H]23)C[C@@H](O)C[C@@H]1O", "note": "[Vitamin D3, 1α, 25-dihydroxyvitamin D3]", "values": [{"measurement": "expression of anti-apoptotic proteins BCL2 and BCL-XL", "setting": "[5]; Deeb et al. 2007", "result": "repressing the expression"}, {"measurement": "expression of pro-apoptotic proteins (BAX, BAK, BAD)", "setting": "[5]; Deeb et al. 2007", "result": "inducing the expression"}, {"measurement": "gene transcription of p21WAFI/CIPI", "setting": "[5]; Deeb et al. 2007", "result": "induce gene transcription"}, {"measurement": "expression of VEGF", "setting": "[5]; Masuda and Jones 2006", "result": "inhibit the expression"}, {"measurement": "proliferation of tumor-derived endothelial cells", "setting": "[5]; Masuda and Jones 2006", "result": "inhibit the proliferation"}]}
{"smiles": "COC1=C(OC)C(=O)C(C/C=C(\\C)CC/C=C(\\C)CC/C=C(\\C)CC/C=C(\\C)CC/C=C(\\C)CC/C=C(\\C)CC/C=C(\\C)CC/C=C(\\C)CC/C=C(\\C)CCC=C(C)C)=C(C)C1=O", "note": "[compound 31510]", "values": [{"measurement": "ECAR", "setting": "[6]; Hypoxia (5.5 mM), 50 μM", "result": 5, "unit": "mpH/min"}, {"measurement": "ECAR", "setting": "[6]; Hypoxia (5.5 mM), 100 μM", "result": 5, "unit": "mpH/min"}, {"measurement": "ECAR", "setting": "[6]; Hypoxia (22 mM), 50 μM", "result": 6, "unit": "mpH/min"}, {"measurement": "ECAR", "setting": "[6]; Hypoxia (22 mM), 100 μM", "result": 8, "unit": "mpH/min"}, {"measurement": "ECAR", "setting": "[6]; Normoxia (5.5 mM), 50 μM", "result": 6, "unit": "mpH/min"}, {"measurement": "ECAR", "setting": "[6]; Normoxia (5.5 mM), 100 μM", "result": 6, "unit": "mpH/min"}, {"measurement": "ECAR", "setting": "[6]; Normoxia (22 mM), 50 μM", "result": 5, "unit": "mpH/min"}, {"measurement": "ECAR", "setting": "[6]; Normoxia (22 mM), 100 μM", "result": 5, "unit": "mpH/min"}]}
